# Measurements taken from patent US20250215030A1, “STAT MODULATORS AND USES THEREOF” (Recludix Pharma, Inc., priority 2022, published 2025).
# What was measured:
# [1] = biological target: T1, Recombinant STAT3 protein (STAT3(G127-I722)) (Homo sapiens, UniProt P40763); assay: STAT3 Fluorescence Polarization (FP) Assay; type: binding; settings: STAT3(G127-I722) 25 nM, probe 5-FAM-GpYLPQTV-NH2 2 nM, 45-minute incubation
# T1 construct: STAT3(G127-I722)
# Summary of the method: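 Serially diluted compounds (1% DMSO) were mixed with 2 nM fluorescent phosphotyrosine peptide and 25 nM STAT3 construct G127-I722, pH 7.4, incubated 45 min at room temperature. IC50 values from fitted polarization curves are reported as categories A (≤100 nM), B, C, D (>10 μM).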
# [2] = biological target: T2, Recombinant STAT6 protein (STAT6(W123-T658)) (Homo sapiens, UniProt P42226); assay: STAT6 Fluorescence Polarization (FP) Assay; type: binding; settings: STAT6(W123-T658) 250 nM, probe 5-FAM-ApYKPFQDLI-NH2 2 nM, 45-minute incubation
# T2 construct: STAT6(W123-T658)
# T2 sequence (P42226 123-658): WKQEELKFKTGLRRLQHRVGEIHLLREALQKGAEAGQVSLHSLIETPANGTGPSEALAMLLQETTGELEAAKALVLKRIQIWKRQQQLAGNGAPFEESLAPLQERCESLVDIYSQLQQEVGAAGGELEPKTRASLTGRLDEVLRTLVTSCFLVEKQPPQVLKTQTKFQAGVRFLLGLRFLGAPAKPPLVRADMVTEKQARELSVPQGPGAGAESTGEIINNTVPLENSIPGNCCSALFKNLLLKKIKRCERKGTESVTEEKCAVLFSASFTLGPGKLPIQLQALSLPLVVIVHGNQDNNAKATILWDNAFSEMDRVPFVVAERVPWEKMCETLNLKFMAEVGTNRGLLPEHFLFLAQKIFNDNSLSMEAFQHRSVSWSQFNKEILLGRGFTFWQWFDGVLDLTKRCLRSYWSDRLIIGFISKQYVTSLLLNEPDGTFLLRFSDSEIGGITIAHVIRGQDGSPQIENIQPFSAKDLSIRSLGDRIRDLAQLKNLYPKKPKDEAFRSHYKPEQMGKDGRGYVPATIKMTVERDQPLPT
# Summary of the method: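 Competitive displacement of a fluorescent phosphotyrosine peptide (2 nM) from recombinant STAT6 W123-T658 (250 nM), 45 min at room temperature in 10 mM HEPES pH 7.4, 50 mM NaCl, 2 mM DTT. mP fitted against log compound for IC50, grouped A (≤300 nM) to D (>30 μM).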
# T1 sequence (P40763 127-722, species assumed): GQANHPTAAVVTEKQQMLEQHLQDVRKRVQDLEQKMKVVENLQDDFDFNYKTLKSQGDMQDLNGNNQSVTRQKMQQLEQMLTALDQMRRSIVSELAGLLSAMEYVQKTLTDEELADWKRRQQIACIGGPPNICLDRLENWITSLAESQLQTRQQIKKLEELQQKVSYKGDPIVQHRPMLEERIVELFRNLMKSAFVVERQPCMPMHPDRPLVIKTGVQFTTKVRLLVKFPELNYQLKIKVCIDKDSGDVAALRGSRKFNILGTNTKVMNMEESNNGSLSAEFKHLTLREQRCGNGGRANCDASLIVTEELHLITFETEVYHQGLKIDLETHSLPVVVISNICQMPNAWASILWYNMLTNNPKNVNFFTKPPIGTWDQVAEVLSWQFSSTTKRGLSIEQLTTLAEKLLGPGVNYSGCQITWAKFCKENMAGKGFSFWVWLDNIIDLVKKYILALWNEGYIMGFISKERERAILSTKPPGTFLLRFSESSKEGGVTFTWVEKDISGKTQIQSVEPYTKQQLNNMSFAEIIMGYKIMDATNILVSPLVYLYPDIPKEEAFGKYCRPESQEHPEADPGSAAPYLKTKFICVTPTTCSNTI
SMILES,IC50 [1] [nM],IC50 [2] [nM]
"O=C(N[C@H]1C[C@@H]2C[C@@H]2C[C@H]2CC[C@@H](C(=O)NC3CN([C@@H]4CCOC4)C3)N2C1=O)c1cc2cc(C(F)(F)P(=O)(O)O)ccc2s1 [Compound 53, (difluoro(2-(((3S,6S,7aS,8aR,9aR)-5-oxo-3-((1-((R)-tetrahydrofuran-3-yl)azetidin-3-yl)carbamoyl)decahydro-1H-cyclopropa[d]pyrrolo[1,2-a]azocin-6-yl)carbamoyl)benzo[b]thiophen-5-yl)methyl)phosphonic acid]",100 to 1000,3000 to 30000
"O=C(N[C@H]1C[C@H]2C[C@H]2C[C@H]2CC[C@@H](C(=O)N3CC(c4c[nH]cn4)C3)N2C1=O)c1cc2cc(C(F)(F)P(=O)(O)O)ccc2s1 [Compound 54, ((2-(((3S,6S,7aR,8aS,9aR)-3-(3-(1H-imidazol-4-yl)azetidine-1-carbonyl)-5-oxodecahydro-1H-cyclopropa[d]pyrrolo[1,2-a]azocin-6-yl)carbamoyl)benzo[b]thiophen-5-yl)difluoromethyl)phosphonic acid]",< 100,300 to 3000
"Cc1ccncc1C1CN(C(=O)[C@@H]2CC[C@@H]3C[C@@H]4C[C@@H]4C[C@H](NC(=O)c4cc5cc(C(F)(F)P(=O)(O)O)ccc5s4)C(=O)N32)C1 [Compound 56, (difluoro(2-(((3S,6S,7aR,8aS,9aR)-3-(3-(4-methylpyridin-3-yl)azetidine-1-carbonyl)-5-oxodecahydro-1H-cyclopropa[d]pyrrolo[1,2-a]azocin-6-yl)carbamoyl)benzo[b]thiophen-5-yl)methyl)phosphonic acid]",< 100,300 to 3000
"O=C(N[C@H]1C[C@@H]2C[C@@H]2C[C@H]2CC[C@@H](C(=O)NC3CN([C@H]4CCOC4)C3)N2C1=O)c1cc2cc(C(F)(F)P(=O)(O)O)ccc2s1 [Compound 57, (difluoro(2-(((3S,6S,7aS,8aR,9aR)-5-oxo-3-((1-((S)-tetrahydrofuran-3-yl)azetidin-3-yl)carbamoyl)decahydro-1H-cyclopropa[d]pyrrolo[1,2-a]azocin-6-yl)carbamoyl)benzo[b]thiophen-5-yl)methyl)phosphonic acid]",100 to 1000,3000 to 30000
"Cc1cccnc1C1CN(C(=O)[C@@H]2CC[C@@H]3C[C@@H]4C[C@@H]4C[C@H](NC(=O)c4cc5cc(C(F)(F)P(=O)(O)O)ccc5s4)C(=O)N32)C1 [Compound 58, (difluoro(2-(((3S,6S,7aR,8aS,9aR)-3-(3-(3-methylpyridin-2-yl)azetidine-1-carbonyl)-5-oxodecahydro-1H-cyclopropa[d]pyrrolo[1,2-a]azocin-6-yl)carbamoyl)benzo[b]thiophen-5-yl)methyl)phosphonic acid]",< 100,3000 to 30000
"O=C(N[C@H]1C[C@@H]2C[C@@H]2C[C@H]2CC[C@@H](C(=O)N3CC(c4cncnc4)C3)N2C1=O)c1cc2cc(C(F)(F)P(=O)(O)O)ccc2s1 [Compound 61, (difluoro(2-(((3S,6S,7aS,8aR,9aR)-5-oxo-3-(3-(pyrimidin-5-yl)azetidine-1-carbonyl)decahydro-1H-cyclopropa[d]pyrrolo[1,2-a]azocin-6-yl)carbamoyl)benzo[b]thiophen-5-yl)methyl)phosphonic acid]",< 100,3000 to 30000
"O=C(N[C@H]1C[C@H]2C[C@H]2C[C@H]2CC[C@@H](C(=O)NC3CN(C(=O)CCC(F)(F)F)C3)N2C1=O)c1cc2cc(C(F)(F)P(=O)(O)O)ccc2s1 [Compound 63, (difluoro(2-(((3S,6S,7aR,8aS,9aR)-5-oxo-3-((1-(4,4,4-trifluorobutanoyl)azetidin-3-yl)carbamoyl)decahydro-1H-cyclopropa[d]pyrrolo[1,2-a]azocin-6-yl)carbamoyl)benzo[b]thiophen-5-yl)methyl)phosphonic acid]",< 100,3000 to 30000
"O=C(N[C@H]1C[C@@H]2C[C@@H]2C[C@H]2CC[C@@H](C(=O)N3CC(F)(c4ccccc4)C3)N2C1=O)c1cc2cc(C(F)(F)P(=O)(O)O)ccc2s1 [Compound 64, (difluoro(2-(((3S,6S,7aS,8aR,9aR)-3-(3-fluoro-3-phenylazetidine-1-carbonyl)-5-oxodecahydro-1H-cyclopropa[d]pyrrolo[1,2-a]azocin-6-yl)carbamoyl)benzo[b]thiophen-5-yl)methyl)phosphonic acid]",< 100,300 to 3000
"O=C(N[C@H]1C[C@@H]2C[C@@H]2[C@H]2CC[C@@H](C(=O)N3CC(c4cccnc4)C3)N2C1=O)c1cc2cc(C(F)(F)P(=O)(O)O)ccc2s1 [Compound 67, (difluoro(2-(((3S,6S,7aS,8aS,8bR)-5-oxo-3-(3-(pyridin-3-yl)azetidine-1-carbonyl)decahydrocyclopropa[c]pyrrolo[1,2-a]azepin-6-yl)carbamoyl)benzo[b]thiophen-5-yl)methyl)phosphonic acid]",< 100,300 to 3000
"CS(=O)(=O)CC1CN(C(=O)[C@@H]2CC[C@@H]3C[C@@H]4C[C@@H]4C[C@H](NC(=O)c4cc5cc(C(F)(F)P(=O)(O)O)ccc5s4)C(=O)N32)C1 [Compound 69, (difluoro(2-(((3S,6S,7aR,8aS,9aR)-3-(3-((methylsulfonyl)methyl)azetidine-1-carbonyl)-5-oxodecahydro-1H-cyclopropa[d]pyrrolo[1,2-a]azocin-6-yl)carbamoyl)benzo[b]thiophen-5-yl)methyl)phosphonic acid]",< 100,3000 to 30000

# Results, then the molecule that gave them:
IC50 [1] [nM],IC50 [2] [nM],SMILES
< 100,3000 to 30000,"Cc1ncccc1C1CN(C(=O)[C@@H]2CC[C@@H]3C[C@@H]4C[C@@H]4C[C@H](NC(=O)c4cc5cc(C(F)(F)P(=O)(O)O)ccc5s4)C(=O)N32)C1 [Compound 55, (difluoro(2-(((3S,6S,7aR,8aS,9aR)-3-(3-(2-methylpyridin-3-yl)azetidine-1-carbonyl)-5-oxodecahydro-1H-cyclopropa[d]pyrrolo[1,2-a]azocin-6-yl)carbamoyl)benzo[b]thiophen-5-yl)methyl)phosphonic acid]"
< 100,3000 to 30000,"O=C(N[C@H]1C[C@H]2C[C@H]2C[C@H]2CC[C@@H](C(=O)N3CC(n4ccnc4)C3)N2C1=O)c1ccc2ccc(C(F)(F)P(=O)(O)O)cc2c1 [Compound 59, ((7-(((3S,6S,7aR,8aS,9aR)-3-(3-(1H-imidazol-1-yl)azetidine-1-carbonyl)-5-oxodecahydro-1H-cyclopropa[d]pyrrolo[1,2-a]azocin-6-yl)carbamoyl)naphthalen-2-yl)difluoromethyl)phosphonic acid]"
< 100,300 to 3000,"Cc1cccc(C2CN(C(=O)[C@@H]3CC[C@@H]4C[C@@H]5C[C@@H]5C[C@H](NC(=O)c5cc6cc(C(F)(F)P(=O)(O)O)ccc6s5)C(=O)N43)C2)n1 [Compound 60, (difluoro(2-(((3S,6S,7aR,8aS,9aR)-3-(3-(6-methylpyridin-2-yl)azetidine-1-carbonyl)-5-oxodecahydro-1H-cyclopropa[d]pyrrolo[1,2-a]azocin-6-yl)carbamoyl)benzo[b]thiophen-5-yl)methyl)phosphonic acid]"
< 100,300 to 3000,"N#Cc1ccc(C2(F)CN(C(=O)[C@@H]3CC[C@@H]4C[C@H]5C[C@H]5C[C@H](NC(=O)c5cc6cc(C(F)(F)P(=O)(O)O)ccc6s5)C(=O)N43)C2)cc1 [Compound 62, ((2-(((3S,6S,7aS,8aR,9aR)-3-(3-(4-cyanophenyl)-3-fluoroazetidine-1-carbonyl)-5-oxodecahydro-1H-cyclopropa[d]pyrrolo[1,2-a]azocin-6-yl)carbamoyl)benzo[b]thiophen-5-yl)difluoromethyl)phosphonic acid]"
< 100,3000 to 30000,"O=C(N[C@H]1C[C@@H]2C[C@@H]2C[C@H]2CC[C@@H](C(=O)N3CC(c4ncccn4)C3)N2C1=O)c1cc2cc(C(F)(F)P(=O)(O)O)ccc2s1 [Compound 65, (difluoro(2-(((3S,6S,7aS,8aR,9aR)-5-oxo-3-(3-(pyrimidin-2-yl)azetidine-1-carbonyl)decahydro-1H-cyclopropa[d]pyrrolo[1,2-a]azocin-6-yl)carbamoyl)benzo[b]thiophen-5-yl)methyl)phosphonic acid]"
< 100,300 to 3000,"Cc1cccc(C2CN(C(=O)[C@@H]3CC[C@@H]4C[C@@H]5C[C@@H]5C[C@H](NC(=O)c5cc6cc(C(F)(F)P(=O)(O)O)ccc6s5)C(=O)N43)C2)c1 [Compound 68, (difluoro(2-(((3S,6S,7aR,8aS,9aR)-5-oxo-3-(3-(m-tolyl)azetidine-1-carbonyl)decahydro-1H-cyclopropa[d]pyrrolo[1,2-a]azocin-6-yl)carbamoyl)benzo[b]thiophen-5-yl)methyl)phosphonic acid]"
